Reference: the supplement of paper PMC8671470
± gives the standard deviation of the averaged measurements.

How the values were obtained:
Details in all cases: 72 h
HL-60 [1] = assay: area under dose-response curve (viability, 1 nM-10 uM) (fraction (0-1)); higher = more sensitive
Outline: (§1)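 Area under the curve, where listed, was derived from four-parameter log-logistic fits with drc and PharmacoGx. These fits used CellTiter-Glo viability from HL-60 cells in RPMI 1640 with 10% FBS, normalised to DMSO wells and wells holding 10 μM proteasome inhibitor. The full library was rescreened on 384-well plates in duplicate at five tenfold concentrations, 1–10,000 nM, with DMSO or 100 nM of one of three metabolic inhibitors, for 72 h at 37 °C, 5% CO2.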

HL-60 [2] = assay: cell viability (% survival relative to DMSO control); higher = less cytotoxic
Outline: as §1

KCL-22 [3] = test system: KCL-22
Outline: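 Fifteen myeloid leukaemia lines were incubated for 72 h at 37 °C with 5% CO2 across five tenfold doses from 1 to 10,000 nM, in duplicate. ATP luminescence was normalised to vehicle and to a positive control at 10 µM and fitted with a four-parameter log-logistic model. The IC50 came from these dose–response fits.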

BV-173 = assay: cell viability (% survival relative to DMSO control, bortezomib = 0%); higher = less cytotoxic
Outline: (§2)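 Fifteen myeloid leukaemia cell lines (10 AML, 5 CML) were seeded at a density titrated to the linear growth range into 384-well plates pre-printed with compounds at 1, 10, 100, 1000 or 10000 nM in duplicate. Plates were incubated for 72 h at 37 °C with 5% CO2. Viability was then read by CellTiter-Glo luminescence. Each value is percent survival averaged over the duplicates, with vehicle set to 100% and a 10 µM positive control to 0%.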

KU-812 = assay: as above
Outline: as §2

SHI-1 = assay: as above
Outline: as §2

HL-60 [4] = assay: as above
Outline: as §2

ML-2 = assay: as above
Outline: as §2

KG-1 = assay: as above
Outline: as §2

MV4-11 = assay: as above
Outline: as §2

LAMA-84 = assay: as above
Outline: as §2

NOMO-1 = assay: as above
Outline: as §2

Mono-Mac-6 = assay: as above
Outline: as §2

THP-1 = assay: as above
Outline: as §2

HEL = assay: as above
Outline: as §2

MOLM-13 = assay: as above
Outline: as §2

K-562 = assay: as above
Outline: as §2

KCL-22 [5] = assay: as above
Outline: as §2

O=c1oc2c(O)c(O)cc3c(=O)oc4c(O)c(O)cc1c4c23 [Benzoaric Acid]
Details | area under dose-response curve, co-treatment: AZD3965 100 nM | area under dose-response curve, co-treatment: DMSO vehicle | area under dose-response curve, co-treatment: GSK2194069 100 nM | area under dose-response curve, co-treatment: pictilisib 100 nM | cell viability, 1 nM [%] | cell viability, 10 nM [%] | cell viability, 100 nM [%] | cell viability, 1000 nM [%] | cell viability, 10000 nM [%]
BV-173 | – | – | – | – | 92.9 | 101 | 92.8 | 97.9 | 99.1
HEL | – | – | – | – | 113 | 100 | 107 | 92.3 | 114
HL-60 [1] | < 0.0301 | < 0.0301 | 0.0302 | 0.0302 | – | – | – | – | –
HL-60 [4] | – | – | – | – | 94.6 | 106 | 90.7 | 92 | 102
K-562 | – | – | – | – | 111 | 93.6 | 94.9 | 87.7 | 90.1
KCL-22 [5] | – | – | – | – | 100 | 111 | 99 | 97.8 | 124
KG-1 | – | – | – | – | 103 | 107 | 96.6 | 90.4 | 120
KU-812 | – | – | – | – | 98.4 | 97 | 95.1 | 92.4 | 110
LAMA-84 | – | – | – | – | 101 | 95.9 | 98.9 | 94.6 | 105
ML-2 | – | – | – | – | 94.7 | 101 | 95.9 | 95.1 | 108
MOLM-13 | – | – | – | – | 92.9 | 99.6 | 96 | 92.9 | 110
MV4-11 | – | – | – | – | 107 | 90.5 | 98.8 | 94.2 | 97.2
Mono-Mac-6 | – | – | – | – | 108 | 109 | 103 | 92.5 | 118
NOMO-1 | – | – | – | – | 102 | 104 | 104 | 99.9 | 102
SHI-1 | – | – | – | – | 97.7 | 106 | 99.7 | 94.3 | 120
THP-1 | – | – | – | – | 102 | 97.3 | 94.3 | 99.4 | 100

cell viability [%], HL-60 [2]
Details | 0.001 µM | 0.01 µM | 0.1 µM | 1 µM | 10 µM
co-treatment: AZD3965 100 nM | 98.61 ± 0.51 | 96.4 ± 5.9 | 101 ± 5.7 | 99.21 ± 0.23 | 99.13 ± 0.98
co-treatment: DMSO vehicle | 102.3 ± 0.26 | 100.2 ± 0.36 | 99.9 ± 1.1 | 102 ± 4.1 | 100 ± 7.2
co-treatment: GSK2194069 100 nM | 101 ± 0.64 | 97.6 ± 3.1 | 95.1 ± 1.7 | 94.3 ± 0.58 | 100 ± 3.9
co-treatment: pictilisib 100 nM | 106 ± 9.2 | 104 ± 17 | 101.4 ± 0.41 | 99.2 ± 1.9 | 96.3 ± 2.1

Details | IC50 (cell viability) [µM]
KCL-22 [3] | > 10

NS(=O)(=O)c1ccc([N+](=O)[O-])cc1 [4-Nitrobenzenesulfonamide]
Details | area under dose-response curve, co-treatment: AZD3965 100 nM | area under dose-response curve, co-treatment: DMSO vehicle | area under dose-response curve, co-treatment: GSK2194069 100 nM | area under dose-response curve, co-treatment: pictilisib 100 nM | cell viability, 1 nM [%] | cell viability, 10 nM [%] | cell viability, 100 nM [%] | cell viability, 1000 nM [%] | cell viability, 10000 nM [%]
BV-173 | – | – | – | – | 101 | 95 | 105 | 97.8 | 86.1
HEL | – | – | – | – | 105 | 98.7 | 105 | 99.6 | 96.3
HL-60 [1] | < 0.0301 | < 0.0301 | < 0.0301 | < 0.0301 | – | – | – | – | –
HL-60 [4] | – | – | – | – | 106 | 111 | 110 | 99.8 | 108
K-562 | – | – | – | – | 103 | 105 | 97.1 | 94.8 | 100
KCL-22 [5] | – | – | – | – | 103 | 101 | 103 | 93.1 | 91.1
KG-1 | – | – | – | – | 107 | 101 | 92.4 | 96.1 | 92.3
KU-812 | – | – | – | – | 102 | 95.7 | 105 | 98.1 | 93
LAMA-84 | – | – | – | – | 99.5 | 95.1 | 103 | 95.4 | 98.6
ML-2 | – | – | – | – | 103 | 111 | 97.3 | 102 | 89.6
MOLM-13 | – | – | – | – | 91.3 | 92.3 | 95.4 | 110 | 107
MV4-11 | – | – | – | – | 102 | 93.4 | 115 | 94.3 | 114
Mono-Mac-6 | – | – | – | – | 101 | 97.3 | 98.1 | 111 | 89.8
NOMO-1 | – | – | – | – | 101 | 105 | 98.5 | 103 | 98.3
SHI-1 | – | – | – | – | 102 | 90.7 | 102 | 100 | 93.8
THP-1 | – | – | – | – | 111 | 101 | 100 | 104 | 90.7

cell viability [%], HL-60 [2]
Details | 0.001 µM | 0.01 µM | 0.1 µM | 1 µM | 10 µM
co-treatment: AZD3965 100 nM | 91.2 ± 9.5 | 100.8 ± 0.12 | 103 ± 2.7 | 97.7 ± 3 | 90.6 ± 17
co-treatment: DMSO vehicle | 92.3 ± 10 | 96.5 ± 4.2 | 104 ± 5.4 | 104 ± 1.6 | 100 ± 1.9
co-treatment: GSK2194069 100 nM | 96.7 ± 2.9 | 96.8 ± 3.1 | 100.73 ± 0.083 | 102 ± 6 | 98.17 ± 0.39
co-treatment: pictilisib 100 nM | 105 ± 14 | 98.6 ± 2.2 | 101 ± 1.9 | 99.4 ± 5.1 | 91.7 ± 7.5

Details | IC50 (cell viability) [µM]
KCL-22 [3] | > 10
